Assay [1] addresses Serine/threonine-protein kinase PRP4 homolog (Homo sapiens) (UniProt Q13523). Description: Selectivity interaction (Ambit KINOMEscan and KiNATiv profiling in Jurkat cells) EUB0000090b PRPF4. The assay is classed as cell-based. Conditions: at 1 µM.
In assay [2] the target is BDNF/NT-3 growth factors receptor (Homo sapiens) (UniProt Q16620). Nature of the assay: Selectivity interaction (SelectScreen profiling (Invitrogen)) EUB0000607a NTRK2. As to conditions: at 2 µM.
The target in assay [3] is T1, Cytoplasmic tyrosine-protein kinase BMX (Homo sapiens) (UniProt P51813).
T1 sequence (whole entry): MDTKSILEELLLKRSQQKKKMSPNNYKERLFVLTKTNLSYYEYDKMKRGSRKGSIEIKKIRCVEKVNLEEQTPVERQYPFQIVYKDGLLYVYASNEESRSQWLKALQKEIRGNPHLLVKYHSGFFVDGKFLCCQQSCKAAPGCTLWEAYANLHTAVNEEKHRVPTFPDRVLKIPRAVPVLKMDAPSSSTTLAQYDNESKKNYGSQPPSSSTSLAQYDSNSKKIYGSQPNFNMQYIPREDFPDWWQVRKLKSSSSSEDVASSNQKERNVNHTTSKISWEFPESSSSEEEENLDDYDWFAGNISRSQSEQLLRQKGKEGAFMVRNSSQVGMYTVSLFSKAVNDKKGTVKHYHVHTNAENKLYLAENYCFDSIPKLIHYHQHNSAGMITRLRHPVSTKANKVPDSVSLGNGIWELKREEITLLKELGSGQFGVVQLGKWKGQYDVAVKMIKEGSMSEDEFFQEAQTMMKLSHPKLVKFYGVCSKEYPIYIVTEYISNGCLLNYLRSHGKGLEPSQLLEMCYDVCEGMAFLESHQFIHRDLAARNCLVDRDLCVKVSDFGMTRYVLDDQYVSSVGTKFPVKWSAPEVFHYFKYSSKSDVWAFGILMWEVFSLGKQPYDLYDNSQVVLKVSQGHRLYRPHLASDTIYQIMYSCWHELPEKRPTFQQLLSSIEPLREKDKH
Nature of the assay: Selectivity interaction (Kinase panel (DSF assay)) EUB0001558a BMX. On the technique in general: DSF heats the sample and reads unfolding from a dye or from intrinsic fluorescence.

The target of assay [4] is T2, Cyclin-dependent kinase 11A (Homo sapiens) (UniProt Q9UQ88).
T2 sequence (whole entry): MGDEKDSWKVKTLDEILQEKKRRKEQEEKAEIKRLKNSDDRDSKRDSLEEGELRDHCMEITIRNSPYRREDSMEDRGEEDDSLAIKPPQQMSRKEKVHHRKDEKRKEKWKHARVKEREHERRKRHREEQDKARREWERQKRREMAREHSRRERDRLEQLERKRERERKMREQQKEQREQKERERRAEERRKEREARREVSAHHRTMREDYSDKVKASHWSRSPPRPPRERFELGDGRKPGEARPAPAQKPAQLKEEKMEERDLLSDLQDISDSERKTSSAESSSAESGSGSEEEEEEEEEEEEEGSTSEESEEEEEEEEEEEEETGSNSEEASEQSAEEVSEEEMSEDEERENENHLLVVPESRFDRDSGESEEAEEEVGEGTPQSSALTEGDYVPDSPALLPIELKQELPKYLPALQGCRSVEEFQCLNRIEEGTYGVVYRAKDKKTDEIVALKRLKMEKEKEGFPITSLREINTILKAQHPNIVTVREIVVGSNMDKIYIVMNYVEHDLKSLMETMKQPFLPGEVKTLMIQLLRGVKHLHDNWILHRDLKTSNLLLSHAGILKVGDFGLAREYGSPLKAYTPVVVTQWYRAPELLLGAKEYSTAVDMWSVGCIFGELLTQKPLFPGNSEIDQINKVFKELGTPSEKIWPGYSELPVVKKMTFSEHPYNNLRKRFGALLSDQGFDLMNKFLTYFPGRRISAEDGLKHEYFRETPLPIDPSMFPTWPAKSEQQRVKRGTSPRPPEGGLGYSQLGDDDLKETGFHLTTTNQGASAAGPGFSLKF
Nature of the assay: Selectivity interaction (KinomeScan (DiscoverX)) EUB0000229b CDK11A. Conditions: at 10 µM.

Assay [5] has as its target T3, Serine/threonine-protein kinase Nek2 (Homo sapiens) (UniProt P51955).
T3 sequence (whole entry): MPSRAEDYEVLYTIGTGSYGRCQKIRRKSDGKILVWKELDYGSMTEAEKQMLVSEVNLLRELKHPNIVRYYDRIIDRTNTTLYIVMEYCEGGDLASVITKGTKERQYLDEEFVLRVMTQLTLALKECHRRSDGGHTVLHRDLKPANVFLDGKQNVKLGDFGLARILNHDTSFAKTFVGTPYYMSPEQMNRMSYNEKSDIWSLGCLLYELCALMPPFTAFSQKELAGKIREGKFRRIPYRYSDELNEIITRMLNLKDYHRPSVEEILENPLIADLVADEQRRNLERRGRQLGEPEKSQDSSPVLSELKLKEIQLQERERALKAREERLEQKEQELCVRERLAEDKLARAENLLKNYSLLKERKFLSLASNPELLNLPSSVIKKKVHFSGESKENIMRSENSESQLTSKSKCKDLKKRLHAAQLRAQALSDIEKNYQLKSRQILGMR
Nature of the assay: Selectivity interaction (KinomeScan (DiscoverX)) EUB0001049a NEK2. Conditions: at 1 µM.

Assay [6] concerns the target Phosphatidylinositol 4,5-bisphosphate 3-kinase catalytic subunit beta isoform (Homo sapiens) (UniProt P42338). Description: Selectivity interaction (KinomeScan (DiscoverX)) EUB0001049a PIK3CB. As to conditions: at 1 µM.
Assay [7] has as its target Dual specificity protein kinase CLK3 (Homo sapiens, UniProt P49761). Nature of the assay: Selectivity interaction (ProQinase) EUB0000171b CLK3.
For assay [8], the target named is Coiled-coil domain-containing protein 6/Tyrosine-protein kinase receptor RET (Homo sapiens) (UniProt P07949+Q16204). Nature of the assay: Selectivity interaction (ProQinase) EUB0000171b RET. The assay is classed as protein assay.
In assay [9] the target is Serine/threonine-protein kinase B-raf (Homo sapiens) (UniProt P15056). Nature of the assay: Selectivity interaction (Kinase panel (DSF assay)) EUB0001559a BRAF.
Sequence of Serine/threonine-protein kinase B-raf (Homo sapiens) (P15056 whole entry): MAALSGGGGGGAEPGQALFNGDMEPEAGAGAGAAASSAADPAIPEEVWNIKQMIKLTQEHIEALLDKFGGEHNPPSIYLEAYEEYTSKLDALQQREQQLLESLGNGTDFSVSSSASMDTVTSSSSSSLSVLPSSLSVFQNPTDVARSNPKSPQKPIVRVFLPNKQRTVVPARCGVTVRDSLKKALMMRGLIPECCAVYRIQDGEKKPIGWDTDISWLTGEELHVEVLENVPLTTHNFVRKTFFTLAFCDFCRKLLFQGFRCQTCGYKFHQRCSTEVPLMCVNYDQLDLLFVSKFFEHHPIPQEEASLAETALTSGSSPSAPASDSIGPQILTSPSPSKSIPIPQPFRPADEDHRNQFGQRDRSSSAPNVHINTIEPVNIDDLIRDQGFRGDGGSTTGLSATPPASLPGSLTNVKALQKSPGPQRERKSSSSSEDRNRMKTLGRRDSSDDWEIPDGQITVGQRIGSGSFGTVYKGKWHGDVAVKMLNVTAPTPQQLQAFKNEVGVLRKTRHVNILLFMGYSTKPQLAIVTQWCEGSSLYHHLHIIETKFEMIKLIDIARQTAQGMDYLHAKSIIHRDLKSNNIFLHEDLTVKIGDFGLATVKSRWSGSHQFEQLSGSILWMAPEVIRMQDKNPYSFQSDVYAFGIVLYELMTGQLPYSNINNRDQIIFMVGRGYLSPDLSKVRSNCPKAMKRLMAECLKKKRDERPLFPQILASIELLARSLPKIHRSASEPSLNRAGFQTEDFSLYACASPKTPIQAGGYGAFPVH

Sequence of Dual specificity protein kinase CLK3 (P49761 whole entry, looked up, the tested form may be a part): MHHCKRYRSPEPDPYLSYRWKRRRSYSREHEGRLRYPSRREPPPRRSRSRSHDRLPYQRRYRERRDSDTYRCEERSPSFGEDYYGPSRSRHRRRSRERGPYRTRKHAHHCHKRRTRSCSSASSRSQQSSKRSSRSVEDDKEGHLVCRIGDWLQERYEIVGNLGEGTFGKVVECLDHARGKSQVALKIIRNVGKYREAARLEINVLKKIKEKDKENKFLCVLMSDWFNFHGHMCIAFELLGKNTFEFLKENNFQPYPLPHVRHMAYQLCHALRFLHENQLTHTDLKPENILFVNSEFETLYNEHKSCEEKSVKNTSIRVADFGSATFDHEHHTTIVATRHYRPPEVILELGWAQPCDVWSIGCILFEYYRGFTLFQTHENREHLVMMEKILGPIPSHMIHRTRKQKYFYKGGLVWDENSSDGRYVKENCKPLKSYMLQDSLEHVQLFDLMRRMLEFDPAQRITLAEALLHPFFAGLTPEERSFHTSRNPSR
Sequence of Coiled-coil domain-containing protein 6/Tyrosine-protein kinase receptor RET (Homo sapiens) (P07949 29-1114 limits assumed): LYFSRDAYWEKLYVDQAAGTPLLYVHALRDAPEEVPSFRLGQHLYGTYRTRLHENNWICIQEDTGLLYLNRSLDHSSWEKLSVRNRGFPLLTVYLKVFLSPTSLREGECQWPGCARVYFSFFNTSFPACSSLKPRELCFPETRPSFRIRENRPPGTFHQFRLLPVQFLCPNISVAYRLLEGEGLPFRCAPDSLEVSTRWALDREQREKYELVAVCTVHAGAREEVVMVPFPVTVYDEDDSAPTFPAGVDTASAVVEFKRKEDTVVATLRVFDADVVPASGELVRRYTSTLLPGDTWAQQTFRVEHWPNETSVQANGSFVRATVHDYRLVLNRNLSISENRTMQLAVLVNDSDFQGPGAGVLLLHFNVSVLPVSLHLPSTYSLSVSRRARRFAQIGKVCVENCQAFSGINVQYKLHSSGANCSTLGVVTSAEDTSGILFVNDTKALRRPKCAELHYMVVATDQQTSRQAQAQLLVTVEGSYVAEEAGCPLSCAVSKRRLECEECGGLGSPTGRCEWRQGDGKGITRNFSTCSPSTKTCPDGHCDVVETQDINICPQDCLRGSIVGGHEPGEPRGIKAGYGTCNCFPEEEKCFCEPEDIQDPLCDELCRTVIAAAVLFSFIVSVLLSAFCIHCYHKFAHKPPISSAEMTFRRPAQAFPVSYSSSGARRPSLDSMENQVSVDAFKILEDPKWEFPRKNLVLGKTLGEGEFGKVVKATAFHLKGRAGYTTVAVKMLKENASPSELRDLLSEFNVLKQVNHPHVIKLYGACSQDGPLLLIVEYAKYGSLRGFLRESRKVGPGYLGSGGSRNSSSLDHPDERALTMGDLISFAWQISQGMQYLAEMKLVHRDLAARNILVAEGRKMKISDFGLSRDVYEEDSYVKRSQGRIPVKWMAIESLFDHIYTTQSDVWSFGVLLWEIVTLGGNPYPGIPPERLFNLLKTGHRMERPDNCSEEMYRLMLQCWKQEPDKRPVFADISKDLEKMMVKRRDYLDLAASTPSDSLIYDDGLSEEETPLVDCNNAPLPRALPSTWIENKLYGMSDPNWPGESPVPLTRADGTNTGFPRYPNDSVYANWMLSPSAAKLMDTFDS
Sequence of Coiled-coil domain-containing protein 6/Tyrosine-protein kinase receptor RET (Homo sapiens) (Q16204 2-474 partner limits assumed): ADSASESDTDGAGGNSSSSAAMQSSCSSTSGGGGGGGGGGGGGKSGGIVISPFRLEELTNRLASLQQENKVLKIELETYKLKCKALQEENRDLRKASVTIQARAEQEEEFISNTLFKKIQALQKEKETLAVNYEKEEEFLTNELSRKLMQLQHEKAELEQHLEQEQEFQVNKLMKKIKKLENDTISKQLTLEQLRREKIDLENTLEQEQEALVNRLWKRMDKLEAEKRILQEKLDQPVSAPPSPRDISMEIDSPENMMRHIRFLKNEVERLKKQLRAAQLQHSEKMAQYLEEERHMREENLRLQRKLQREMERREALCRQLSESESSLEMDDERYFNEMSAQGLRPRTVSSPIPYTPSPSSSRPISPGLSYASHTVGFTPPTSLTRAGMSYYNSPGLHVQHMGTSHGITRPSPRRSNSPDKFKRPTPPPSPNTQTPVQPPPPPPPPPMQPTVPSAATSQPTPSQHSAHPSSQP
Sequence of BDNF/NT-3 growth factors receptor (Homo sapiens) (Q16620 32-822 limits assumed): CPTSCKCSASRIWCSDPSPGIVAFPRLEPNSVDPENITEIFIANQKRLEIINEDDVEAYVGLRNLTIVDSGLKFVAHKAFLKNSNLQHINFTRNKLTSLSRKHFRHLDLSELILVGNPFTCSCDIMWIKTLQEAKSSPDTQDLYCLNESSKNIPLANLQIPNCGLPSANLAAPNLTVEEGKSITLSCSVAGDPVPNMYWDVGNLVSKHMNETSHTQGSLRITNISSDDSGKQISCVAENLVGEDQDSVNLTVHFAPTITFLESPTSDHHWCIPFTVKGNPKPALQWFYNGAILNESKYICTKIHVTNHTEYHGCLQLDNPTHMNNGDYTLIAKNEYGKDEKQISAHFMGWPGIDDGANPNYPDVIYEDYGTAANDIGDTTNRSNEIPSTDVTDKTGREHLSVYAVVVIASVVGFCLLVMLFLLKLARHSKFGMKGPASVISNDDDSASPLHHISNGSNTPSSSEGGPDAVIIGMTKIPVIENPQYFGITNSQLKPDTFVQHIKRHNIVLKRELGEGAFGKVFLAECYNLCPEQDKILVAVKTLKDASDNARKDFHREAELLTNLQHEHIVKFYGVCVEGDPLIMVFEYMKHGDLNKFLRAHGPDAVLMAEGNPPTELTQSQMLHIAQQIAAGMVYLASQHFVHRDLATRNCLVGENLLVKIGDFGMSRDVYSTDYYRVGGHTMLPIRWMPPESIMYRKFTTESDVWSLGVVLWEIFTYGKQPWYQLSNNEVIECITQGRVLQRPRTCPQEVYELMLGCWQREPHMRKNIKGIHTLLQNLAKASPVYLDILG
Sequence of Phosphatidylinositol 4,5-bisphosphate 3-kinase catalytic subunit beta isoform (Homo sapiens) (P42338 whole entry, looked up, canonical isoform): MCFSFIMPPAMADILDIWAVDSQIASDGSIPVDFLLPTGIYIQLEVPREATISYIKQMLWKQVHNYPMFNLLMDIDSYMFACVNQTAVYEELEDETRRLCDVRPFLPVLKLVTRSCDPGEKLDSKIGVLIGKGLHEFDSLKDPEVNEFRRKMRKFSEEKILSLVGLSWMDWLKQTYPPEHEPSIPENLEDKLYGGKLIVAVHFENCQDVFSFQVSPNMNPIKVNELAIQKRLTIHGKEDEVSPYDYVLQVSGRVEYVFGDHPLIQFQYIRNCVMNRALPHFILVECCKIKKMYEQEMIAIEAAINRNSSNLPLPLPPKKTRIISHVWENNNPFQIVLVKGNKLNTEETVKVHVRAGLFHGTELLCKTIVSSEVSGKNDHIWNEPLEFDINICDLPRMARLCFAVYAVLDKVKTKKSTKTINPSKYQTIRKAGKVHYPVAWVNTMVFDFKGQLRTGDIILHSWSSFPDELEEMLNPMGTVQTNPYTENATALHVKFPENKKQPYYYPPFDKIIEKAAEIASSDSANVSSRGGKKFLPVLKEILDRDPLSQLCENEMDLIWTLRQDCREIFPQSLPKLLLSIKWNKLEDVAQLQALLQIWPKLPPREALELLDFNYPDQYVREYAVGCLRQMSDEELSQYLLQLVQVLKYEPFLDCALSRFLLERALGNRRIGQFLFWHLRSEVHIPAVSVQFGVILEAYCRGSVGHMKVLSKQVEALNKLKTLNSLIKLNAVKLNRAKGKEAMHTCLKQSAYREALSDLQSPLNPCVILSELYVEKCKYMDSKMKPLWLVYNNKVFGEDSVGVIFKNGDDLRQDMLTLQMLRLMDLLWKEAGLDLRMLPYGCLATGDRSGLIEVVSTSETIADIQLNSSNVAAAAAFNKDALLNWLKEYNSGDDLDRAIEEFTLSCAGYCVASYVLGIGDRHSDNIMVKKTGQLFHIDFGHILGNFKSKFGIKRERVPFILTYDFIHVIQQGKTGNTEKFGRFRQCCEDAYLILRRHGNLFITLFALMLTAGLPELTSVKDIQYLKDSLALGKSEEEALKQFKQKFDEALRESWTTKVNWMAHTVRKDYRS

`CN(C)C/C=C/C(=O)Nc1ccc(C(=O)N2CCCC(Nc3ncc(Cl)c(-c4c[nH]c5ccccc45)n3)C2)cc1` (stereo unspecified) returned a % of control in assay [1] of 74%.
The compound `CNC(=O)Nc1ccc(-c2nc(N3CC4CCC(C3)O4)c3cnn(C4CCC5(CC4)OCCO5)c3n2)cc1` came in with a % of inhibition in assay [2] of 1%.
`CC(C)(O)[C@H](F)CN1Cc2cc(NC(=O)c3cnn4cccnc34)c(N3CCOCC3)cc2C1=O` gave a dTM in assay [3] of 0.2 K.
In turn, `COc1cc(N(C)c2ccnc3ccc(C(F)(F)F)cc23)cc(OC)c1OC` displayed a % binding in [4] of 97%.
Regarding `COc1cc(Nc2nc(C)cc(-c3cnn4nc(OC)ccc34)n2)cc(C(F)(F)F)c1`, the % of control is 98% in assay [5] and 55% in [6].
In the case of `C=CC(=O)Nc1cccc(C(=O)Nc2ccc(Nc3cc(-c4[nH]c(SC)nc4C)ccn3)cc2)c1`, the % of control in assay [7] (at 1 µM) worked out at 98%; in [7] (at 5 µM), 89%; in assay [8] (at 1 µM), 84%; in assay [8] (at 5 µM), 84%.
Consider `CN(C(=O)c1cnn2cccnc12)c1cc2c(cc1N1CCOCC1)C(=O)N(C[C@@H](F)C(C)(C)O)C2`, for which, in [9], the dTM stood at 1.7 K.

(Values after ChEMBL document CHEMBL5465560, “Selectivity Literature for EUbOPEN Chemogenomic Library” (2024).)
